Experimental data reported in publication PMC7140460, “Fluorinated Galactoses Inhibit Galactose-1-Phosphate Uridyltransferase and Metabolically Induce Galactosemia-like Phenotypes in HEK-293 Cells” (Cells, 2020).

Target: T1, recombinant hGALT (human galactose-1-phosphate uridyltransferase) (Homo sapiens, UniProt P07902)
T1 construct: gene GALT; synthetic gene in pET-15b (NdeI-BamHI, insert 1149 bp), His-tagged, E. coli BL21(DE3)-RIPL, Ni-NTA purified; tag removal not mentioned
Test: coupled PGM/G6PDH assay, NADPH absorbance at […] nm
Type: biochemical

T1 sequence (P07902 whole entry): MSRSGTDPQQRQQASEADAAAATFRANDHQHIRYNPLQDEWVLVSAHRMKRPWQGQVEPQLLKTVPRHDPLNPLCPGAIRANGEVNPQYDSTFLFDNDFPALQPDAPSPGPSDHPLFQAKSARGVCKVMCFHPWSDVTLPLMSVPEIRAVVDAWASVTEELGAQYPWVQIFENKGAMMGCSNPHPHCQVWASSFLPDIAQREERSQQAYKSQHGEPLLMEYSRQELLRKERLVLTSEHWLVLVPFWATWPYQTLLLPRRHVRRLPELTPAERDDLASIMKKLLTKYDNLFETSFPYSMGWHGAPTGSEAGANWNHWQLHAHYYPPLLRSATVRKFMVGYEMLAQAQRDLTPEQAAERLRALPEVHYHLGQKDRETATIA

O=P(O)(O)O[C@H]1O[C@H](CO)[C@H](O)[C@H](O)[C@H]1F [F-Gal-1-P, 2-fluoro-2-deoxy-galactose-1-phosphate]
Ki: 900 µM
